Data: patent US20240059703A1 (AMGEN INC., priority 2021, published 2024)

Each compound was assayed against KRAS G12C (Homo sapiens (Human), UniProt P01116, C118A/G12C) (assay: 2 h coupled exchange assay). Conditions: Avg 2 h Coupled exchange IC50, 2 h compound pre-incubation.
Type: biochemical
Method: The term “2 h coupled exchange assay” or “20 h coupled exchange assay” as used herein refers to the assay described in the Section entitled “BIOLOGICAL EVALUATION.”

Chain of KRAS G12C (P01116 other isoform, or with tags, fused parts or gaps G12C/C118A): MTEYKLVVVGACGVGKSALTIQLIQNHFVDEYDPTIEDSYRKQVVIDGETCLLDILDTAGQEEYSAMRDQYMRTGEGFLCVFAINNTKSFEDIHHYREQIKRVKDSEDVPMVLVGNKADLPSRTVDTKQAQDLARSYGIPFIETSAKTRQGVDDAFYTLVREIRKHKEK

IC50 [nM]	SMILES
55600	C=CC(=O)N1CC2(CCN(c3nc4c(c(-c5c(C)ccc6cnn(C)c56)c3F)COC(C)(C)C4)C2)C1 (single isomer, unassigned) [Example 14-102, (P)-1-(6-(4-(1,6-dimethyl-1H-indazol-7-yl)-3-fluoro-7,7-dimethyl-7,8-dihydro-5H-pyrano[4,3-b]pyridin-2-yl)-2,6-diazaspiro[3.4]octan-2-yl)-2-propen-1-one]
164	C=CC(=O)N1CC2(CCN(c3nc4c(c(-c5ccc(F)c6sc(N)nc56)c3C)COC(C)(C)C4)C2)C1 [Example 14-27, 1-(6-(4-(2-amino-7-fluoro-1,3-benzothiazol-4-yl)-3,7,7-trimethyl-7,8-dihydro-5H-pyrano[4,3-b]pyridin-2-yl)-2,6-diazaspiro[3.4]octan-2-yl)-2-propen-1-one]
521	C=CC(=O)N1CC2(CCN(c3nc4cc(-c5ccnn5C(F)F)ccc4c(-c4ccccc4Cl)c3C#N)C2)C1 [Example 17-4, 4-(2-chlorophenyl)-7-(1-(difluoromethyl)-1H-pyrazol-5-yl)-2-(2-(2-propenoyl)-2,6-diazaspiro[3.4]octan-6-yl)-3-quinolinecarbonitrile]
722	C=CC(=O)N1CC2(CCN(c3nc4cc(-c5ocnc5C)ccc4c(-c4ccccc4Cl)c3C#N)C2)C1 [Example 17-9, 4-(2-chlorophenyl)-7-(4-methyl-1,3-oxazol-5-yl)-2-(2-(2-propenoyl)-2,6-diazaspiro[3.4]octan-6-yl)-3-quinolinecarbonitrile]
726	C=CC(=O)N1CC2(CCN(c3nc4c(c(-c5c(C)ccc6cnn(C)c56)c3F)C[C@H]3C[C@@H]4C3(C)C)C2)C1 (single isomer, unassigned) [Example 14-75]
301	C=CC(=O)N1CC2(CCN(c3nc4c(c(-c5c(C)ccc6cnn(C)c56)c3F)COC(C)(C)C4)C2)C1 (single isomer, unassigned) [Example 14-101, (M)-1-(6-(4-(1,6-dimethyl-1H-indazol-7-yl)-3-fluoro-7,7-dimethyl-7,8-dihydro-5H-pyrano[4,3-b]pyridin-2-yl)-2,6-diazaspiro[3.4]octan-2-yl)-2-propen-1-one]
33500	C=CC(=O)N1CC2(CCN(c3nc4c(c(-c5cccc6cc(O)ccc56)c3F)COC(C)(C)C4)C2)C1 (single isomer, unassigned) [Example 14-66, (P)-1-(6-(3-fluoro-4-(6-hydroxy-1-naphthalenyl)-7,7-dimethyl-7,8-dihydro-5H-pyrano[4,3-b]pyridin-2-yl)-2,6-diazaspiro[3.4]octan-2-yl)-2-propen-1-one]
7480	C=CC(=O)N1CC2(CCN(c3nc4c(c(-c5cccc6cc(O)ccc56)c3C)COC(C)(C)C4)C2)C1 (single isomer, unassigned) [Example 14-45, (M)-1-(6-(4-(6-hydroxy-1-naphthalenyl)-3,7,7-trimethyl-7,8-dihydro-5H-pyrano[4,3-b]pyridin-2-yl)-2,6-diazaspiro[3.4]octan-2-yl)-2-propen-1-one]

Same assay, conditions: Avg 2 h Coupled exchange IC50, 2 h compound pre-incubation, SOS-mediated nucleotide exchange

SMILES	IC50 [nM]
C=CC(=O)N1CC2(CCN(c3cc4c(c(-c5c(C)ccc6[nH]ncc56)c3C#N)COCC4)C2)C1 (single isomer, unassigned) [Example 2-99, (M)-8-(5-methyl-1H-indazol-4-yl)-6-(2-(2-propenoyl)-2,6-diazaspiro[3.4]octan-6-yl)-3,4-dihydro-1H-2-benzopyran-7-carbonitrile]	4390
C=CC(=O)N1CC2(CCN(c3nc4ccccc4c(-c4c(Cl)ccc5[nH]ncc45)c3C)C2)C1 [Example 2-29, 1-(6-(4-(5-chloro-1H-indazol-4-yl)-3-methyl-2-quinolinyl)-2,6-diazaspiro[3.4]octan-2-yl)-2-propen-1-one]	903
C=CC(=O)N1CC2(CCN(c3nc4ccccc4c(-c4c(C)ccc5[nH]ncc45)c3C)C2)C1 (single isomer, unassigned) [Example 2-55, (P)-1-(6-(3-methyl-4-(5-methyl-1H-indazol-4-yl)-2-quinolinyl)-2,6-diazaspiro[3.4]octan-2-yl)-2-propen-1-one]	419
C=CC(=O)N1CC2(CCN(c3nc4c(c(-c5ccc(O)c6ccccc56)c3C#N)COC(C)(C)C4)C2)C1 [Example 12-31, 4-(4-hydroxy-1-naphthalenyl)-7,7-dimethyl-2-(2-(2-propenoyl)-2,6-diazaspiro[3.4]octan-6-yl)-7,8-dihydro-5H-pyrano[4,3-b]pyridine-3-carbonitrile]	189
C=CC(=O)N1CC2(CCN(c3nc4c(c(-c5c(C)ccc6[nH]ncc56)c3Cl)COC(C)(C)C4)C2)C1 (single isomer, unassigned) [Example 2-84, (P)-1-(6-(3-chloro-7,7-dimethyl-4-(5-methyl-1H-indazol-4-yl)-7,8-dihydro-5H-pyrano[4,3-b]pyridin-2-yl)-2,6-diazaspiro[3.4]octan-2-yl)-2-propen-1-one]	808
C=CC(=O)N1CC2(CCN(c3nc4c(c(-c5cccc6cc(C(F)(F)F)[nH]c56)c3C#N)C[C@H]3C[C@@H]4C3(C)C)C2)C1 [Example 12-27, (1R,9R)-10,10-dimethyl-4-(2-(2-propenoyl)-2,6-diazaspiro[3.4]octan-6-yl)-6-(2-(trifluoromethyl)-1H-indol-7-yl)-3-azatricyclo[7.1.1.0^2,7] undeca-2,4,6-triene-5-carbonitrile]	476
C=CC(=O)N1CC2(CCN(c3nc4c(c(-c5c(C)c(Cl)cc6cnn(C)c56)c3Cl)COC(C)(C)C4)C2)C1 (single isomer, unassigned) [Example 2-90, (M)-1-(6-(3-chloro-4-(5-chloro-1,6-dimethyl-1H-indazol-7-yl)-7,7-dimethyl-7,8-dihydro-5H-pyrano[4,3-b]pyridin-2-yl)-2,6-diazaspiro[3.4]octan-2-yl)-2-propen-1-one]	5
C=CC(=O)N1CC2(CCN(c3nc4c(c(-c5c(C)ccc6[nH]ncc56)c3C)CCC(C)(C)C4)C2)C1 (single isomer, unassigned) [Example 2-12, (M)-1-(6-(3,7,7-trimethyl-4-(5-methyl-1H-indazol-4-yl)-5,6,7,8-tetrahydro-2-quinolinyl)-2,6-diazaspiro[3.4]octan-2-yl)-2-propen-1-one]	1110
C=CC(=O)N1CC2(CCN(c3nc4c(c(-c5cc(F)c(O)c6ccccc56)c3C#N)COC(C)(C)C4)C2)C1 [Example 12-28, 4-(3-fluoro-4-hydroxy-1-naphthalenyl)-7,7-dimethyl-2-(2-(2-propenoyl)-2,6-diazaspiro[3.4]octan-6-yl)-7,8-dihydro-5H-pyrano[4,3-b]pyridine-3-carbonitrile]	263
C=CC(=O)N1CC2(CCN(c3nc4cc(OC)cnc4c(-c4c(C)ccc5[nH]ncc45)c3C)C2)C1 [Example 2-51, 1-(6-(7-methoxy-3-methyl-4-(5-methyl-1H-indazol-4-yl)-1,5-naphthyridin-2-yl)-2,6-diazaspiro[3.4]octan-2-yl)-2-propen-1-one]	267
C=CC(=O)N1CC2(CCN(c3nc4ccccc4c(-c4c(C)ccc5[nH]ncc45)c3C)C2)C1 [Example 8, 1-(6-(3-Methyl-4-(5-methyl-1H-indazol-4-yl)quinolin-2-yl)-2,6-diazaspiro[3.4]octan-2-yl)prop-2-en-1-one]	1270
C=CC(=O)N1CC2(CCN(c3nc4c(c(-c5cc(O)cc6ncccc56)c3C#N)C[C@H]3C[C@@H]4C3(C)C)C2)C1 (single isomer, unassigned) [Example 2-47]	181

Results, then the compound that gave them:

IC50 [nM]	SMILES
231	C=CC(=O)N1CC2(CCN(c3nc4c(c(-c5scnc5C)c3C#N)CCC(c3ccnn3C)C4)C2)C1 [Example 13-27, (7S)-7-(1-methyl-1H-pyrazol-5-yl)-4-(4-methyl-1,3-thiazol-5-yl)-2-(2-(2-propenoyl)-2,6-diazaspiro[3.4]octan-6-yl)-5,6,7,8-tetrahydro-3-quinolinecarbonitrile|(7R)-7-(1-methyl-1H-pyrazol-5-yl)-4-(4-methyl-1,3-thiazol-5-yl)-2-(2-(2-propenoyl)-2,6-diazaspiro[3.4]octan-6-yl)-5,6,7,8-tetrahydro-3-quinolinecarbonitrile]
2840	C=CC(=O)N1CC2(CCN(c3nc4c(c(-c5cc(O)ccc5C)c3C#N)[C@H]3CC[C@@H]4C3)C2)C1 (single isomer, unassigned) [Example 14-13]
1780	C=CC(=O)N1CC2(CCN(c3nc4c(c(-c5c(O)ccc6ccccc56)c3C#N)C[C@H]3C[C@@H]4C3)C2)C1 [Example 13-35, (1S,9S)-6-(2-hydroxy-1-naphthalenyl)-4-(2-(2-propenoyl)-2,6-diazaspiro[3.4]octan-6-yl)-3-azatricyclo[7.1.1.0^2,7]undeca-2,4,6-triene-5-carbonitrile]
169	Cc1ccc2[nH]ncc2c1-c1c(C#N)c(N2CCC3(CN(C(=O)/C=C/CF)C3)C2)nc2c1CCC(C)(C)C2 [Example 13-6, 2-(2-((2E)-4-fluoro-2-butenoyl)-2,6-diazaspiro[3.4]octan-6-yl)-7,7-dimethyl-4-(5-methyl-1H-indazol-4-yl)-5,6,7,8-tetrahydro-3-quinolinecarbonitrile]
641	C=CC(=O)N1CC2(CCN(c3nc4c(c(-c5c(C)ccc6cnn(C)c56)c3C#N)CNC(C)(C)C4)C2)C1 [Example 13-138, 4-(1,6-dimethyl-1H-indazol-7-yl)-7,7-dimethyl-2-(2-(2-propenoyl)-2,6-diazaspiro[3.4]octan-6-yl)-5,6,7,8-tetrahydro-1,6-naphthyridine-3-carbonitrile]

Same assay, conditions: read-out: Avg 2 h Coupled exchange IC50, 2 h compound pre-incubation

IC50 [nM]	SMILES
34600	C=CC(=O)N1CC2(CCN(c3nc4ccccc4c(-c4c(C)ccc5[nH]ncc45)c3C=C)C2)C1 (atropisomer, axis not shown; (M)) [Example 26-2, (M)-1-(6-(3-ethenyl-4-(5-methyl-1H-indazol-4-yl)-2-quinolinyl)-2,6-diazaspiro[3.4]octan-2-yl)-2-propen-1-one]
